In brackets after ≈: the same amount, converted by molar mass. Like-named read-outs stand apart in the source and are kept apart here.
How the values were obtained:
Assay in all cases: Effect of inoculum size on susceptibility of Enterobacteriaceae
Escherichia coli = system: Escherichia coli
Klebsiella pneumoniae = system: Klebsiella pneumoniae
Enterobacter cloacae = system: Enterobacter cloacae
Enterobacter aerogenes = conditions: Klebsiella aerogenes, read-out: Minimum Inhibitory Concentration, Enterobacter aerogenes strain 1
Proteus mirabilis = system: Proteus mirabilis

SMILES: O=C(Cc1cccs1)N[C@@H]1C(=O)N2C(C(=O)[O-])=C(C[n+]3ccccc3)CS[C@H]12 [Cephaloridine]
- MIC (Escherichia coli; read-out: Minimum Inhibitory Concentration, Escherichia coli strain 2, A, Inoculum of 10^2 organisms): 4 µg/mL (≈ 9.63 µM)
- MIC (Escherichia coli; read-out: Minimum Inhibitory Concentration, Escherichia coli strain 2, B, Inoculum of 10^6 organisms): 16 µg/mL (≈ 38.5 µM)
- MIC (Escherichia coli; read-out: Minimum Inhibitory Concentration, Escherichia coli strain 3, A, Inoculum of 10^2 organisms): 2 µg/mL (≈ 4.81 µM)
- MIC (Escherichia coli; read-out: Minimum Inhibitory Concentration, Escherichia coli strain 3, B, Inoculum of 10^6 organisms): 4 µg/mL (≈ 9.63 µM)
- MIC (Escherichia coli; read-out: Minimum Inhibitory Concentration, Escherichia coli strain 4, A, Inoculum of 10^2 organisms): 2 µg/mL (≈ 4.81 µM)
- MIC (Escherichia coli; read-out: Minimum Inhibitory Concentration, Escherichia coli strain 4, B, Inoculum of 10^6 organisms): 4 µg/mL (≈ 9.63 µM)
- MIC (Escherichia coli; read-out: Minimum Inhibitory Concentration, Escherichia coli strain 5, A, Inoculum of 10^2 organisms): 4 µg/mL (≈ 9.63 µM)
- MIC (Escherichia coli; read-out: Minimum Inhibitory Concentration, Escherichia coli strain 5, B, Inoculum of 10^6 organisms): 8 µg/mL (≈ 19.3 µM)
- MIC (Escherichia coli; read-out: Minimum Inhibitory Concentration, Escherichia coli strain 6, A, Inoculum of 10^2 organisms): 2 µg/mL (≈ 4.81 µM)
- MIC (Escherichia coli; read-out: Minimum Inhibitory Concentration, Escherichia coli strain 6, B, Inoculum of 10^6 organisms): 8 µg/mL (≈ 19.3 µM)
- MIC (Escherichia coli; read-out: Minimum Inhibitory Concentration, Escherichia coli strain 7, A, Inoculum of 10^2 organisms): 2 µg/mL (≈ 4.81 µM)
- MIC (Escherichia coli; read-out: Minimum Inhibitory Concentration, Escherichia coli strain 7, B, Inoculum of 10^6 organisms): 4 µg/mL (≈ 9.63 µM)
- MIC (Klebsiella pneumoniae; read-out: Minimum Inhibitory Concentration, Klebsiella pneumoniae strain 1, A, Inoculum of 10^2 organisms): 2 µg/mL (≈ 4.81 µM)
- MIC (Klebsiella pneumoniae; read-out: Minimum Inhibitory Concentration, Klebsiella pneumoniae strain 1, B, Inoculum of 10^6 organisms): 4 µg/mL (≈ 9.63 µM)
- MIC (Klebsiella pneumoniae; read-out: Minimum Inhibitory Concentration, Klebsiella pneumoniae strain 2, A, Inoculum of 10^2 organisms): 2 µg/mL (≈ 4.81 µM)
- MIC (Klebsiella pneumoniae; read-out: Minimum Inhibitory Concentration, Klebsiella pneumoniae strain 2, B, Inoculum of 10^6 organisms): 8 µg/mL (≈ 19.3 µM)
- MIC (Klebsiella pneumoniae; read-out: Minimum Inhibitory Concentration, Klebsiella pneumoniae strain 3, A, Inoculum of 10^2 organisms): 2 µg/mL (≈ 4.81 µM)
- MIC (Klebsiella pneumoniae; read-out: Minimum Inhibitory Concentration, Klebsiella pneumoniae strain 3, B, Inoculum of 10^6 organisms): 16 µg/mL (≈ 38.5 µM)
- MIC (Klebsiella pneumoniae; read-out: Minimum Inhibitory Concentration, Klebsiella pneumoniae strain 4, A, Inoculum of 10^2 organisms): 2 µg/mL (≈ 4.81 µM)
- MIC (Klebsiella pneumoniae; read-out: Minimum Inhibitory Concentration, Klebsiella pneumoniae strain 4, B, Inoculum of 10^6 organisms): 8 µg/mL (≈ 19.3 µM)
- MIC (Klebsiella pneumoniae; read-out: Minimum Inhibitory Concentration, Klebsiella pneumoniae strain 5, A, Inoculum of 10^2 organisms): 2 µg/mL (≈ 4.81 µM)
- MIC (Klebsiella pneumoniae; read-out: Minimum Inhibitory Concentration, Klebsiella pneumoniae strain 5, B, Inoculum of 10^6 organisms): 16 µg/mL (≈ 38.5 µM)
- MIC (Klebsiella pneumoniae; read-out: Minimum Inhibitory Concentration, Klebsiella pneumoniae strain 6, A, Inoculum of 10^2 organisms): 2 µg/mL (≈ 4.81 µM)
- MIC (Klebsiella pneumoniae; read-out: Minimum Inhibitory Concentration, Klebsiella pneumoniae strain 6, B, Inoculum of 10^6 organisms): 16 µg/mL (≈ 38.5 µM)
- MIC (Enterobacter cloacae; read-out: Minimum Inhibitory Concentration, Enterobacter cloacae strain 1, A, Inoculum of 10^2 organisms): 4 µg/mL (≈ 9.63 µM)
- MIC (Enterobacter cloacae; read-out: Minimum Inhibitory Concentration, Enterobacter cloacae strain 1, B, Inoculum of 10^6 organisms): > 250 µg/mL
- MIC (Enterobacter cloacae; read-out: Minimum Inhibitory Concentration, Enterobacter cloacae strain 2, A, Inoculum of 10^2 organisms): 125 µg/mL (≈ 301 µM)
- MIC (Enterobacter cloacae; read-out: Minimum Inhibitory Concentration, Enterobacter cloacae strain 2, B, Inoculum of 10^6 organisms): > 250 µg/mL
- MIC (Enterobacter cloacae; read-out: Minimum Inhibitory Concentration, Enterobacter cloacae strain 3, A, Inoculum of 10^2 organisms): 16 µg/mL (≈ 38.5 µM)
- MIC (Enterobacter cloacae; read-out: Minimum Inhibitory Concentration, Enterobacter cloacae strain 3, B, Inoculum of 10^6 organisms): 250 µg/mL (≈ 602 µM)
- MIC (Enterobacter cloacae; read-out: Minimum Inhibitory Concentration, Enterobacter cloacae strain 4, A, Inoculum of 10^2 organisms): > 250 µg/mL
- MIC (Enterobacter cloacae; read-out: Minimum Inhibitory Concentration, Enterobacter cloacae strain 4, B, Inoculum of 10^6 organisms): > 250 µg/mL
- MIC (Enterobacter cloacae; read-out: Minimum Inhibitory Concentration, Enterobacter cloacae strain 5, A, Inoculum of 10^2 organisms): 63 µg/mL (≈ 152 µM)
- MIC (Enterobacter cloacae; read-out: Minimum Inhibitory Concentration, Enterobacter cloacae strain 5, B, Inoculum of 10^6 organisms): > 250 µg/mL
- MIC (Enterobacter aerogenes; A, Inoculum of 10^2 organisms): 63 µg/mL (≈ 152 µM)
- MIC (Enterobacter aerogenes; B, Inoculum of 10^6 organisms): > 250 µg/mL
- MIC (Proteus mirabilis; read-out: Minimum Inhibitory Concentration, Proteus mirabilis strain 1, A, Inoculum of 10^2 organisms): 4 µg/mL (≈ 9.63 µM)
- MIC (Proteus mirabilis; read-out: Minimum Inhibitory Concentration, Proteus mirabilis strain 1, B, Inoculum of 10^6 organisms): 16 µg/mL (≈ 38.5 µM)
- MIC (Proteus mirabilis; read-out: Minimum Inhibitory Concentration, Proteus mirabilis strain 2, A, Inoculum of 10^2 organisms): 8 µg/mL (≈ 19.3 µM)
- MIC (Proteus mirabilis; read-out: Minimum Inhibitory Concentration, Proteus mirabilis strain 2, B, Inoculum of 10^6 organisms): 16 µg/mL (≈ 38.5 µM)
- MIC (Proteus mirabilis; read-out: Minimum Inhibitory Concentration, Proteus mirabilis strain 3, A, Inoculum of 10^2 organisms): 8 µg/mL (≈ 19.3 µM)
- MIC (Proteus mirabilis; read-out: Minimum Inhibitory Concentration, Proteus mirabilis strain 3, B, Inoculum of 10^6 organisms): 32 µg/mL (≈ 77 µM)
- MIC (Proteus mirabilis; read-out: Minimum Inhibitory Concentration, Proteus mirabilis strain 4, A, Inoculum of 10^2 organisms): 4 µg/mL (≈ 9.63 µM)
- MIC (Proteus mirabilis; read-out: Minimum Inhibitory Concentration, Proteus mirabilis strain 4, B, Inoculum of 10^6 organisms): 32 µg/mL (≈ 77 µM)
- MIC (Proteus mirabilis; read-out: Minimum Inhibitory Concentration, Proteus mirabilis strain 5, A, Inoculum of 10^2 organisms): 4 µg/mL (≈ 9.63 µM)
- MIC (Proteus mirabilis; read-out: Minimum Inhibitory Concentration, Proteus mirabilis strain 5, B, Inoculum of 10^6 organisms): 16 µg/mL (≈ 38.5 µM)
